Results reported in ChEMBL document CHEMBL1201862, “PubChem BioAssay data set” (2004).
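Method: 48-hour compound exposure of cells in 96-well plates, five concentrations, linear interpolation of endpoints. GI50: concentration for 50% inhibition of growth.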 Activity calls are given as the source filed them. Cut-off read from the data, not from the text of the source: active = GI50 up to about 1.1 µM and inactive = higher.

Experiments:
Assay in all cases: DTP human tumour cell line panel, 48 h
CCRF-CEM = system: CCRF-CEM
DMS-273 = system: DMS-273
HCT-116 = system: HCT-116
K562 = system: K562
M14 = system: M14
OVCAR-3 = system: OVCAR-3
OVCAR-4 = system: OVCAR-4
SF-268 = system: SF-268
SF-295 = system: SF-295
SK-MEL-2 = system: SK-MEL-2
SNB-19 = system: SNB-19
SW-620 = system: SW-620
KM12 = system: KM12
RXF 393 = system: RXF 393

Row | Compound | GI50 (CCRF-CEM) | GI50 (DMS-273) | GI50 (HCT-116) | GI50 (K562) | GI50 (M14) | GI50 (OVCAR-3) | GI50 (OVCAR-4) | GI50 (SF-268) | GI50 (SF-295) | GI50 (SK-MEL-2) | GI50 (SNB-19) | GI50 (SW-620) | GI50 (KM12) | GI50 (RXF 393)
1 | COC(=O)N1C=CC2=C(C)C3Nc4ccccc4C3C(C)=C2C1 (configuration not stated) | 0.726 µM (active) | 0.301 µM (active) | 0.643 µM (active) | 2.09 µM (inactive) | 1.64 µM (inactive) | 0.923 µM (active) | 1.34 µM (inactive) | 1.94 µM (inactive) | 1.64 µM (inactive) | 1.47 µM (inactive) | 2.97 µM (inactive) | 1.01 µM (active) | – | –
2 | O=C1c2cccc3cccc(c23)C(=O)N1CCN(CCO)CCO | 30.3 µM (inactive) | 22.8 µM (inactive) | 16.9 µM (inactive) | 25.5 µM (inactive) | 20 µM (inactive) | 33.8 µM (inactive) | 25.5 µM (inactive) | 35.6 µM (inactive) | 47.4 µM (inactive) | 12.2 µM (inactive) | 38.3 µM (inactive) | 19.1 µM (inactive) | 29.5 µM (inactive) | 20.9 µM (inactive)
3 | CCOC(=O)C1=C(C)NC(=S)NC1c1ccccc1 (configuration not stated) | > 45.1 µM (inactive) | > 100 µM (inactive) | > 59 µM (inactive) | 50 µM (inactive) | > 100 µM (inactive) | > 100 µM (inactive) | 32.3 µM (inactive) | > 100 µM (inactive) | > 100 µM (inactive) | > 100 µM (inactive) | – | – | > 100 µM (inactive) | > 66.2 µM (inactive)
4 | Brc1cc2c(cc1C1SCCS1)OCO2 | > 100 µM (inactive) | > 100 µM (inactive) | > 100 µM (inactive) | 59.2 µM (inactive) | > 100 µM (inactive) | > 100 µM (inactive) | > 100 µM (inactive) | > 100 µM (inactive) | > 100 µM (inactive) | > 100 µM (inactive) | > 100 µM (inactive) | > 100 µM (inactive) | > 100 µM (inactive) | –
5 | CCN(CC)CCCNc1nccc2c(C)c3[nH]c4ccncc4c(=O)c3cc12 | 0.746 µM (active) | 2.19 µM (inactive) | 0.514 µM (active) | 2.61 µM (inactive) | 2.84 µM (inactive) | 1.8 µM (inactive) | 0.604 µM (active) | 0.643 µM (active) | 3.64 µM (inactive) | 2.89 µM (inactive) | 2.87 µM (inactive) | 1.84 µM (inactive) | 3.52 µM (inactive) | 0.558 µM (active)
6 | CC1(C)C(=O)N(CCCCCCN2C(=O)C(C)(C)c3ccccc32)c2ccccc21 | 22.4 µM (inactive) | 40.9 µM (inactive) | 21 µM (inactive) | 22.6 µM (inactive) | 24.6 µM (inactive) | 28 µM (inactive) | 23.4 µM (inactive) | 60.8 µM (inactive) | 44.1 µM (inactive) | 48.6 µM (inactive) | 68.5 µM (inactive) | 14.7 µM (inactive) | 37.9 µM (inactive) | –
7 | Nc1ccc(C(=O)NN2C(=O)C(Cl)C2c2ccc(O)cc2)cc1 (configuration not stated) | 12.3 µM (inactive) | 17.2 µM (inactive) | 19.2 µM (inactive) | 21.3 µM (inactive) | 17.5 µM (inactive) | 15 µM (inactive) | 19.1 µM (inactive) | 13.4 µM (inactive) | 33 µM (inactive) | 15.3 µM (inactive) | 16 µM (inactive) | 23.3 µM (inactive) | 21.8 µM (inactive) | –
8 | CNC(=O)OCc1nccc2c(C)c3[nH]c4ccc(OC)cc4c3cc12 | 1.51 µM (inactive) | 7.23 µM (inactive) | 1.95 µM (inactive) | 2.7 µM (inactive) | 9.12 µM (inactive) | 21.9 µM (inactive) | 8.11 µM (inactive) | 10.5 µM (inactive) | 8.75 µM (inactive) | 8.91 µM (inactive) | 3.78 µM (inactive) | 3.03 µM (inactive) | 3.78 µM (inactive) | 3.16 µM (inactive)
9 | Cn1nc(-c2ccccc2)c(C(=O)/C=C/c2ccc(F)cc2)c(N2CCOCC2)c1=O | 17.7 µM (inactive) | 19.1 µM (inactive) | 4.21 µM (inactive) | 16.8 µM (inactive) | 21.8 µM (inactive) | – | – | 19.1 µM (inactive) | 18.2 µM (inactive) | – | 13.7 µM (inactive) | 21.3 µM (inactive) | – | 13.6 µM (inactive)
10 | N#Cc1c2c(c(Cl)n3c1nc1ccccc13)CCCC2 | – | 1.09 µM (active) | 2.75 µM (inactive) | 2.5 µM (inactive) | 3.45 µM (inactive) | 6.5 µM (inactive) | 4.35 µM (inactive) | 2.58 µM (inactive) | 4.83 µM (inactive) | 2.8 µM (inactive) | 4.69 µM (inactive) | 1.96 µM (inactive) | – | 0.272 µM (active)
